This test has as its target T1, Danio rerio TREK-1 (Danio rerio, UniProt F1QAI2).
T1 sequence (F1QAI2 1-426): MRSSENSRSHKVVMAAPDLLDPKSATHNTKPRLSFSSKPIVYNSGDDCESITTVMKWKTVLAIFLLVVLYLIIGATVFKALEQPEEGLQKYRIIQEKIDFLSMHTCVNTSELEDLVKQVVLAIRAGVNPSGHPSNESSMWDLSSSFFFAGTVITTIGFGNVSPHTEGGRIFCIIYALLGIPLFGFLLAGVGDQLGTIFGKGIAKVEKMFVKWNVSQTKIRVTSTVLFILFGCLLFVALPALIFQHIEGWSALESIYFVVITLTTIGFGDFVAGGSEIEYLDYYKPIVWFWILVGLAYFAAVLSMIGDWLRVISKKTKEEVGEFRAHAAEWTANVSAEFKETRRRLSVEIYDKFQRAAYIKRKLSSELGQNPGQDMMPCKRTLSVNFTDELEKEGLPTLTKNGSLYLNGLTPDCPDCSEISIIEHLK
The test can be described thus: Patch recording of Danio rerio TREK-1 from cultured cells. Format: biochemical. Conditions: IC50, Danio rerio TREK-1, patches. How it is done: For patch clamp recording from cultured cells, drTREK-1 or hsTRAAK genes were cloned into a modified pCEH vector to generate C-terminally EGFP-tagged constructs. HEK293T were cultured in DMEM (Gibco, Thermo Fisher Scientific) with 10% FBS and 100 U ml−1 penicillin and 100 μg ml−1 streptomycin. Trypsinized cells were deposited on 12-mm glass coverslips in a six-well dish one to two days before transfection. For transfection, drTREK-1 or hsTRAAK plasmids were mixed with FuGENE 6 in OptiMEM at a 1:3 ratio with 1 μg DNA per well per construct and applied to cells in growth medium with antibiotics. Patching was conducted from 24 to 60 h post-transfection. Coverslips were placed in a perfusion chamber at room temperature in isotonic bath solution: 135 mM NaCl, 15 mM KCl, 1 mM CaCl2, 1 mM MgCl2, 10 mM HEPES, adjusted to a final pH of 7.5 with NaOH. Cells were chosen by a combination of the presence GFP fluorescence and cell morphology consistent with healthy interphase cells. […]
Patches were evaluated with voltage-step protocols to confirm TRAAK expression and minimal non-specific leak based on reversal potential. Currents were recorded using an Axopatch 200B amplifier (Molecular Devices) at a bandwidth of 1 kHz and digitized with an Digidata 1550B (Molecular Devices) at 100–500 kHz using pClamp10.7 software. […] Data were analyzed using Clampfit 10.7, Excel, and Graphpad Prism software. […]

The term IC50 denotes the point on the concentration scale where inhibition reaches its midpoint. On to `C=C(C)[C@@H]1CCC(C)=C[C@H]1c1c(O)cc(CCCCC)cc1O` [CBD, Cannabidiol], for which the IC50 came to 11.1 µM.
